Assay results from US20120183579A1, “COMPOUNDS FOR INFLAMMATION AND IMMUNE-RELATED USES” (Synta Pharmaceuticals Corp., priority 2008, published 2012).
Where a name gives a salt, the structure may show the parent alone.

System: IL-2
Assay: Inhibition of IL-2 production (Jurkat cells activated with PHA, ELISA)
Format: cell-based
Conditions: Homo sapiens, Jurkat, Jurkat/PHA/1% FBS; activity class
Procedure: Jurkat cells were placed in a 96 well plate (0.5 million cells per well in 1% FBS medium), and then a test compound of this invention was added at different concentrations. After 10 minutes, the cells were activated with PHA (final concentration 2.5 μg/mL) and incubated for 20 hours at 37° C. under 5% CO2. The final volume was 200 μL. Following incubation, the cells were centrifuged, and the supernatants collected and stored at −70° C. prior to assaying for IL-2 production. A commercial ELISA kit (IL-2 Eli-pair, Diaclone Research, Besancon, France) was used to detect production of IL-2, from which dose response curves were obtained. The IC50 value was calculated as the concentration at which 50% of maximum IL-2 production after stimulation was inhibited versus a non-stimulation control.

`CC1=C(c2cnc(NC(=O)c3c(F)cccc3F)cn2)CN(c2nc(-c3cccnc3)cs2)CC1` [Compound 17, 2,6-difluoro-N-(5-(4-methyl-1-(4-(pyridin-3-yl)thiazol-2-yl)-1,2,5,6-tetrahydropyridin-3-yl)pyrazin-2-yl)benzamide] was tested, and the IC50 was 0.05 to 0.1 µM.

Same assay, conditions: Homo sapiens, Jurkat, Jurkat/PHA/1% FBS; numeric values

In order of falling IC50:
1. CC1=C(c2cnc(NC(=O)c3cc(F)ccc3Cl)cn2)CN(c2nccs2)CC1 [Compound 21, 2-chloro-5-fluoro-N-(5-(4-methyl-1-(thiazol-2-yl)-1,2,5,6-tetrahydropyridin-3-yl)pyrazin-2-yl)benzamide]  0.055 µM
2. CC1=C(c2ccc(NC(=O)c3c(F)cccc3F)cc2)CN(c2nnn(C)n2)CC1 [Compound 20, 2,6-difluoro-N-(4-(4-methyl-1-(2-methyl-2H-tetrazol-5-yl)-1,2,5,6-tetrahydropyridin-3-yl)phenyl)benzamide]  0.052 µM
3. CC1=C(c2cnc(NC(=O)c3ccc(F)cc3Cl)cn2)CN(c2ncccc2F)CC1 [Compound 63, 2-chloro-4-fluoro-N-(5-(1-(3-fluoropyridin-2-yl)-4-methyl-1,2,5,6-tetrahydropyridin-3-yl)pyrazin-2-yl) benzamide]  0.049 µM
4. Cn1nnc(N2CCC(Cl)=C(c3cnc(NC(=O)c4cc(F)ccc4Cl)cn3)C2)n1 [Compound 62, 2-chloro-N-(5-(4-chloro-1-(2-methyl-2H-tetrazol-5-yl)-1,2,5,6-tetrahydropyridin-3-yl)pyrazin-2-yl)-5-fluorobenzamide]  0.049 µM
5. COc1cc(F)c(C(=O)Nc2cnc(C3=C(C)CCN(c4ncccc4F)C3)cn2)c(F)c1 [Compound 60, 2,6-difluoro-N-(5-(1-(3-fluoropyridin-2-yl)-4-methyl-1,2,5,6-tetrahydropyridin-3-yl)pyrazin-2-yl)-4-methoxybenzamide]  0.046 µM
6. CC1=C(c2cnc(NC(=O)c3c(F)cccc3F)cn2)CN(c2nc(-c3cccnc3)cs2)CC1 [Compound 59, 2,6-difluoro-N-(5-(4-methyl-1-(4-(pyridin-3-yl)thiazol-2-yl)-1,2,5,6-tetrahydropyridin-3-yl)pyrazin-2-yl)benzamide]  0.044 µM
7. CC1=C(c2ccc(NC(=O)c3c(Cl)cncc3Cl)cc2)CN(c2ncccc2F)CC1 [Compound 55, 3,5-dichloro-N-(4-(1-(3-fluoropyridin-2-yl)-4-methyl-1,2,5,6-tetrahydropyridin-3-yl)phenyl)isonicotinamide]  0.041 µM
8. CC1=C(c2ccc(NC(=O)c3c(C)cccc3Cl)cc2)CN(c2nnn(C)n2)CC1 [Compound 57, 2-chloro-6-methyl-N-(4-(4-methyl-1-(2-methyl-2H-tetrazol-5-yl)-1,2,5,6-tetrahydropyridin-3-yl)phenyl) benzamide]  0.041 µM
9. CC1=C(c2cnc(NC(=O)c3cccc(F)c3C)cn2)CN(c2ncc(C)s2)CC1 [Compound 52, 3-fluoro-2-methyl-N-(5-(4-methyl-1-(5-methylthiazol-2-yl)-1,2,5,6-tetrahydropyridin-3-yl)pyrazin-2-yl)benzamide hydrochloride]  0.04 µM
10. CC1=C(c2ccc(NC(=O)c3c(Cl)cncc3Cl)cc2)CN(c2ccccn2)CC1 [Compound 51, 3,5-dichloro-N-(4-(4-methyl-1-(pyridin-2-yl)-1,2,5,6-tetrahydropyridin-3-yl)phenyl)isonicotinamide]  0.037 µM
11. CC1=C(c2cnc(NC(=O)c3c(F)cccc3F)cn2)CN(c2ncc(F)cc2F)CC1 [Compound 19, N-(5-(1-(3,5-difluoropyridin-2-yl)-4-methyl-1,2,5,6-tetrahydropyridin-3-yl)pyrazin-2-yl)-2,6-difluorobenzamide]  0.036 µM
12. CCc1cnc(N2CCC(C)=C(c3cnc(NC(=O)c4c(F)cccc4F)cn3)C2)s1 [Compound 47, N-(5-(1-(5-ethylthiazol-2-yl)-4-methyl-1,2,5,6-tetrahydropyridin-3-yl)pyrazin-2-yl)-2,6-difluorobenzamide hydrochloride]  0.035 µM
13. CC1=C(c2ccc(NC(=O)c3c(C)cccc3F)cc2)CN(c2nnn(C)n2)CC1 [Compound 45, 2-fluoro-6-methyl-N-(4-(4-methyl-1-(2-methyl-2H-tetrazol-5-yl)-1,2,5,6-tetrahydropyridin-3-yl)phenyl) benzamide]  0.033 µM
14. CCn1nnc(N2CCC(C)=C(c3cnc(NC(=O)c4c(F)cccc4Cl)cn3)C2)n1 [Compound 18, 2-chloro-N-(5-(1-(2-ethyl-2H-tetrazol-5-yl)-4-methyl-1,2,5,6-tetrahydropyridin-3-yl)pyrazin-2-yl)-6-fluorobenzamide]  0.032 µM
15. CC1=C(c2cnc(NC(=O)c3c(F)cc(Br)cc3F)cn2)CN(c2ncccc2F)CC1 [Compound 44, 4-bromo-2,6-difluoro-N-(5-(1-(3-fluoropyridin-2-yl)-4-methyl-1,2,5,6-tetrahydropyridin-3-yl)pyrazin-2-yl) benzamide]  0.031 µM
16. CC1=C(c2ccc(NC(=O)c3c(F)cc(F)cc3F)cc2)CN(c2ncccc2C#N)CC1 [Compound 43, N-(4-(1-(3-cyanopyridin-2-yl)-4-methyl-1,2,5,6-tetrahydropyridin-3-yl)phenyl)-2,4,6-trifluorobenzamide]  0.031 µM
17. CC1=C(c2cnc(NC(=O)c3cc(F)ccc3C)cn2)CN(c2ncccc2F)CC1 [Compound 13, 5-fluoro-N-(5-(1-(3-fluoropyridin-2-yl)-4-methyl-1,2,5,6-tetrahydropyridin-3-yl)pyrazin-2-yl)-2-methylbenzamide]  0.03 µM
18. CC1=C(c2ccc(NC(=O)c3ccncc3C)cc2)CN(c2ncccc2F)CC1 [Compound 41, N-(4-(1-(3-fluoropyridin-2-yl)-4-methyl-1,2,5,6-tetrahydropyridin-3-yl)phenyl)-3-methylisonicotinamide]  0.028 µM
19. CC1=C(c2cnc(NC(=O)c3cccc(F)c3C)cn2)CN(c2ncccc2F)CC1 [Compound 42, 3-fluoro-N-(5-(1-(3-fluoropyridin-2-yl)-4-methyl-1,2,5,6-tetrahydropyridin-3-yl)pyrazin-2-yl)-2-methylbenzamide]  0.028 µM
20. CC1=C(c2cnc(NC(=O)c3cc(F)ccc3F)cn2)CN(c2ncccc2F)CC1 [Compound 40, 2,5-difluoro-N-(5-(1-(3-fluoropyridin-2-yl)-4-methyl-1,2,5,6-tetrahydropyridin-3-yl)pyrazin-2-yl)benzamide]  0.027 µM
21. CC1=C(c2ccc(NC(=O)c3sccc3C)cc2)CN(c2nccs2)CC1 [Compound 39, 3-methyl-N-(4-(4-methyl-1-(thiazol-2-yl)-1,2,5,6-tetrahydropyridin-3-yl)phenyl)thiophene-2-carboxamide]  0.027 µM
22. CC1=C(c2cnc(NC(=O)c3c(F)cccc3F)cn2)CN(c2ccncc2F)CC1 [Compound 38, 2,6-difluoro-N-(5-(1-(3-fluoropyridin-4-yl)-4-methyl-1,2,5,6-tetrahydropyridin-3-yl)pyrazin-2-yl)benzamide]  0.026 µM
23. CC1=C(c2ccc(NC(=O)c3c(F)cccc3F)cc2)CN(c2ccccn2)CC1 [Compound 33, 2,6-difluoro-N-(4-(4-methyl-1-(pyridin-2-yl)-1,2,5,6-tetrahydropyridin-3-yl)phenyl)benzamide]  0.022 µM
24. Cn1nnc(N2CCC(Cl)=C(c3ccc(NC(=O)c4c(F)cccc4F)cc3)C2)n1 [Compound 34, N-(4-(4-chloro-1-(2-methyl-2H-tetrazol-5-yl)-1,2,5,6-tetrahydropyridin-3-yl)phenyl)-2,6-difluorobenzamide]  0.022 µM
25. CC1=C(c2cnc(NC(=O)c3cnccc3C)cn2)CN(c2ncccc2F)CC1 [Compound 31, N-(5-(1-(3-fluoropyridin-2-yl)-4-methyl-1,2,5,6-tetrahydropyridin-3-yl)pyrazin-2-yl)-4-methylnicotinamide]  0.021 µM
26. CC1=C(c2ccc(NC(=O)c3ccncc3Cl)cc2)CN(c2nnn(C)n2)CC1 [Compound 27, 3-chloro-N-(4-(4-methyl-1-(2-methyl-2H-tetrazol-5-yl)-1,2,5,6-tetrahydropyridin-3-yl)phenyl)isonicotinamide]  0.019 µM
27. O=C(Nc1cnc(C2=C(Cl)CCN(c3nccs3)C2)cn1)c1c(F)cccc1F [Compound 12, N-(5-(4-chloro-1-(thiazol-2-yl)-1,2,5,6-tetrahydropyridin-3-yl)pyrazin-2-yl)-2,6-difluorobenzamide hydrochloride]  0.019 µM
28. CC1=C(c2ccc(NC(=O)c3c(F)cncc3F)cc2)CN(c2ccccn2)CC1 [Compound 26, 3,5-difluoro-N-(4-(4-methyl-1-(pyridin-2-yl)-1,2,5,6-tetrahydropyridin-3-yl)phenyl)isonicotinamide hydrochloride]  0.018 µM
29. CC1=C(c2ccc(NC(=O)c3ccccc3Cl)cc2)CN(c2nnn(C)n2)CC1 [Compound 25, 2-chloro-N-(4-(4-methyl-1-(2-methyl-2H-tetrazol-5-yl)-1,2,5,6-tetrahydropyridin-3-yl)phenyl)benzamide]  0.017 µM
30. CC1=C(c2cnc(NC(=O)c3c(F)cccc3F)cn2)CN(c2ncc(C)s2)CC1 [Compound 9, 2,6-difluoro-N-(5-(4-methyl-1-(5-methylthiazol-2-yl)-1,2,5,6-tetrahydropyridin-3-yl)pyrazin-2-yl)benzamide hydrochloride]  0.015 µM
31. CC1=C(c2ccc(NC(=O)c3ccccc3F)cc2)CN(c2nccs2)CC1 [Compound 7, 2-fluoro-N-(4-(4-methyl-1-(thiazol-2-yl)-1,2,5,6-tetrahydropyridin-3-yl)phenyl)benzamide]  0.013 µM

Same assay, conditions: Jurkat/PHA/1% FBS; numeric values; hydrochloride

`O=C(Nc1ccc(C2=C(Cl)CCN(c3nccs3)C2)cc1)c1c(F)cccc1F` [Compound 32, N-(4-(4-chloro-1-(thiazol-2-yl)-1,2,5,6-tetrahydropyridin-3-yl)phenyl)-2,6-difluorobenzamide hydrochloride] gave an IC50 of 0.021 µM.
